The nature of data set [1]: in vitro. As to conditions: dog, MDCK.
Data set [2] can be described thus: in vitro. As to conditions: human, liver microsomes. On the technique in general: Microsomes from liver hold many membrane-bound enzymes, among them those of drug oxidation.
A short description of data set [3]: physchem. The settings on record: octanol/water, pH 7.4.
The nature of data set [4]: in vivo. As to conditions: Sprague-Dawley, rat, iv, 1 mg/kg.
Data set [5] addresses T1, Voltage-gated inwardly rectifying potassium channel KCNH2 (Homo sapiens, UniProt Q12809).
A short description of data set [6]: in vivo. As to conditions: Sprague-Dawley, rat, iv, 1 mg/kg. The source holds these as a separate data set.
A short description of data set [7]: in vivo. The settings on record: Sprague-Dawley, rat, iv, 1 mg/kg. The source holds these as a separate data set.
Data set [8] concerns the target T1, Voltage-gated inwardly rectifying potassium channel KCNH2. The source holds these as a separate data set.
Data set [9] is described as follows: in vivo. The settings on record: Sprague-Dawley, rat, iv, 1 mg/kg. The source holds these as a separate data set.
Data set [10] is described as follows: in vitro. The settings on record: mouse, liver microsomes.
Data set [11] is described as follows: in vivo. As to conditions: Sprague-Dawley, rat, po, 3 mg/kg.
The nature of data set [12]: in vivo. The settings on record: Sprague-Dawley, rat, iv, 1 mg/kg. The source holds these as a separate data set.
Data set [13] is described as follows: physchem.
Data set [14] is described as follows: physchem. As to conditions: buffer, pH 6.8.
Data set [15] is described as follows: in vitro. As to conditions: rat, liver microsomes.
Data set [16] is described as follows: in vivo. The settings on record: Sprague-Dawley, rat, iv, 1 mg/kg. This is another data set of the same source.
Data set [17] is described as follows: in vivo. The settings on record: C57BL/6, mouse, po, 10 mg/kg.
Data set [18] is described as follows: in vivo. The settings on record: C57BL/6, mouse, po, 10 mg/kg. This is another data set of the same source.
Data set [19] concerns the target T1, Voltage-gated inwardly rectifying potassium channel KCNH2. This is another data set of the same source.
The nature of data set [20]: Inhibition of calcium ionophore A23187-stimulated LTB4 release in C57BL/6 mouse model at 10 mg/kg, po bid measured after 2 hrs. The data set is classed as functional.
Data set [21] deals with T2, Leukotriene A-4 hydrolase (Homo sapiens, UniProt P09960).
T2 sequence (P09960 whole entry): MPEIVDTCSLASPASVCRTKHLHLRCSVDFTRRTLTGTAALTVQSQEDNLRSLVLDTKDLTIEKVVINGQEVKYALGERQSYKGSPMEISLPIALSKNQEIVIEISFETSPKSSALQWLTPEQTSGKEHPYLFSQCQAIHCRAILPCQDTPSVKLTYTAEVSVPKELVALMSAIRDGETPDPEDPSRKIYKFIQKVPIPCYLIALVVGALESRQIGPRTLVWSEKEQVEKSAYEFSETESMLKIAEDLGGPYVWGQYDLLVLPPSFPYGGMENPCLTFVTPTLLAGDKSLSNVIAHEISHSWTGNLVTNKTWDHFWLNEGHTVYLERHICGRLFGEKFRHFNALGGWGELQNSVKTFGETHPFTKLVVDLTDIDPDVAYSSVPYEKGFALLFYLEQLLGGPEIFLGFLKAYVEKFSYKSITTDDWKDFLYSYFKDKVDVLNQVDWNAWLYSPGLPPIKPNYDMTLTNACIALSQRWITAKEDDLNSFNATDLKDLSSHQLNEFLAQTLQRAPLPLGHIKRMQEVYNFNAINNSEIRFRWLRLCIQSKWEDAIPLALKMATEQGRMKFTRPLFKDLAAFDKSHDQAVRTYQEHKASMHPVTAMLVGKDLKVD
Briefly: Inhibition of LTA4H in human blood assessed as LTB4 production. The data set is classed as tissue-based.

Data set [22] addresses T2, Leukotriene A-4 hydrolase. Briefly: Inhibition of LTA4H (unknown origin).

In brackets after ≈: the same amount, converted by molar mass.

T1 sequence (Q12809 whole entry): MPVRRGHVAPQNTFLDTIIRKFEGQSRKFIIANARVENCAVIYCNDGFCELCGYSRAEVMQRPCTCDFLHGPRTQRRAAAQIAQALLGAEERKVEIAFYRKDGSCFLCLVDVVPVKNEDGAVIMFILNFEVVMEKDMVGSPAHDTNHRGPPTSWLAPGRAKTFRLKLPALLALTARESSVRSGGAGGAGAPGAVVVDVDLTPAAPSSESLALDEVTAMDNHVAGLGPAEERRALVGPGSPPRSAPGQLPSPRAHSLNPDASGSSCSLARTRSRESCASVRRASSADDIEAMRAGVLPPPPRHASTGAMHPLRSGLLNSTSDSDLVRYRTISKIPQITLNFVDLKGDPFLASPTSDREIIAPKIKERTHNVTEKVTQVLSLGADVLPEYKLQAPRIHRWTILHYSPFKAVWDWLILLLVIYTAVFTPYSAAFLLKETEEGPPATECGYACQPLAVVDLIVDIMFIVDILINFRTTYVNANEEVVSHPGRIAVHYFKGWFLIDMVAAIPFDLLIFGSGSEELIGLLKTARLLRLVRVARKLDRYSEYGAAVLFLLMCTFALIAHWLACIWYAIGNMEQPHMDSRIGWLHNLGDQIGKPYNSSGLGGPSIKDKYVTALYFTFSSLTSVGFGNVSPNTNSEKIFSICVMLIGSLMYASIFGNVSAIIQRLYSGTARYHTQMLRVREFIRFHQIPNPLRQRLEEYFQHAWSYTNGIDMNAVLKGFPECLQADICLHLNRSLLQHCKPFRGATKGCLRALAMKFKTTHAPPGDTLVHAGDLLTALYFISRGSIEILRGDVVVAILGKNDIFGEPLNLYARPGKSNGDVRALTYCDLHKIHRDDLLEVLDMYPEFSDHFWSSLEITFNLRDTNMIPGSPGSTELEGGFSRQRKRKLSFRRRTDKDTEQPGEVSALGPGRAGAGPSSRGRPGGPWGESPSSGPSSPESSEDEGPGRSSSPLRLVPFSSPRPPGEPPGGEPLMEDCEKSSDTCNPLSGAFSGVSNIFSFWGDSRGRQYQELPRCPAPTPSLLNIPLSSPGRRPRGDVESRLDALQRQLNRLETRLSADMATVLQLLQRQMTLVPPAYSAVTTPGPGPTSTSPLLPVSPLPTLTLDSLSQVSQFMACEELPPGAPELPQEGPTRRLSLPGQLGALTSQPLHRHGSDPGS

With `N[C@@H](CO)Cn1nnc(-c2ccc(Oc3ncc(Cl)cc3F)cc2)n1`, the Papp A→B – broadly, the apparent permeability from the apical to the basolateral side of a cell layer – in “in vitro [1]” turned out to be 25 ×10⁻⁶ cm/s. Further, the microsomal CLint in the data set “in vitro [2]”, in “in vitro [10]” and in the data set “in vitro [15]” was less than 25 µL/min/mg each time. Moreover, in “physchem [3]”, the logD (usually the decadic logarithm of the distribution of all forms, ionised or not, between an organic phase and buffer at a given pH) stood at 2.3. The clearance (usually a measure of how efficiently the substance is removed, as volume per time) in the data set “in vivo [4]” was determined as 134 mL/min/kg. The IC50 in data set [5] and in data set [8] was greater than 30 µM throughout. Besides, the concentration at 24 h in “in vivo [6]” stood at 2 nM. Further, the MRT – broadly, a mean duration of stay, worked out from the concentration-time curve – in “in vivo [7]” was found to be 4.5 h. The Vd (usually the apparent volume that relates the amount in the body to the concentration in plasma or blood) in the data set “in vivo [9]” was found to be 36 L/kg. In addition, the total exposure AUC(0-inf) (usually the area under the concentration-time curve extrapolated to infinity) in “in vivo [11]” is 0.369 µM·h. Further, the bioavailability (in general, dose-corrected exposure relative to a reference, in per cent) in “in vivo [12]” was found to be 37%. Besides, the pKa (commonly the negative logarithm of the acid dissociation constant) in “physchem [13]” came to 7.1. Moreover, the solubility – broadly, how much of the substance goes into solution per volume – in “physchem [14]” came to 520 µM (≈ 190 µg/mL). Moreover, the concentration in “in vivo [16]” peaked (Cmax) at 42 nM.

Take `N[C@H](CCO)Cn1nnc(-c2ccc(Oc3ncc(Cl)cc3F)cc2)n1`: the Papp A→B in the data set “in vitro [1]” stood at 21 ×10⁻⁶ cm/s. Also, the intrinsic metabolic clearance (microsomal CLint) (in general, a measure of how fast metabolising enzymes remove a compound, apart from limits set by blood flow) in the data set “in vitro [2]” was 40 µL/min/mg; in the data set “in vitro [10]” it was 145 µL/min/mg; in the data set “in vitro [15]”, 94 µL/min/mg. This molecule also came in with a logD in “physchem [3]” of 2.4. Besides, the IC50 – broadly, the point on the concentration scale where inhibition reaches its midpoint – in data set [8] is greater than 30 µM. Further, the concentration in solution in “physchem [14]” (solubility) was 580 µM (≈ 220 µg/mL).

For the molecule `Cc1ccc(Oc2ccc(-c3nnn(CCN)n3)cc2)cc1`, in the data set “in vitro [1]”, the Papp A→B came out at 34 ×10⁻⁶ cm/s. Also, the microsomal CLint in the data set “in vitro [2]” came out at 396 µL/min/mg; in “in vitro [10]” it was 246 µL/min/mg; in the data set “in vitro [15]”, 266 µL/min/mg. This molecule also returned a logD in the data set “physchem [3]” of 3. The same molecule yielded a concentration for half-maximal inhibition (IC50) in data set [8] of 6 µM. This molecule also had a solubility in the data set “physchem [14]” of 30 µM (≈ 8.86 µg/mL).

`N[C@H](CO)Cc1nc(-c2ccc(Oc3ccc(-c4cc[nH]n4)cn3)cc2)no1` displayed a Papp A→B in the data set “in vitro [1]” of 9 ×10⁻⁶ cm/s. The microsomal CLint is less than 25 µL/min/mg in the data set “in vitro [2]”, 29 µL/min/mg in “in vitro [10]” and less than 25 µL/min/mg in “in vitro [15]”. In addition, in “physchem [3]”, the log distribution coefficient (logD) stood at 1.8. Also, the clearance in “in vivo [4]” amounted to 16 mL/min/kg. Besides, the concentration at 24 h was determined as 116 nM in the data set “in vivo [17]” (blood) and 23 nM in “in vivo [6]”. Moreover, the 50% inhibitory concentration (IC50) was greater than 30 µM in [5], greater than 30 µM in data set [8] and greater than 100 µM in data set [19]. The mean residence time MRT in the data set “in vivo [7]” came out at 23 h. The molecule also showed a volume of distribution (Vd) in the data set “in vivo [9]” of 21 L/kg. Further, the concentration at 2 h in the data set “in vivo [18]” (blood) stood at 800 nM. The molecule also returned an AUC(0-inf) in “in vivo [11]” of 4.2 µM·h. This molecule also came in with a bioavailability in the data set “in vivo [12]” of 49%. Also, the solubility in the data set “physchem [14]” turned out to be 870 µM (≈ 329 µg/mL). In the data set “in vivo [16]”, the highest level (Cmax) was 403 nM.

In the data set “in vitro [1]”, `N[C@@H](CCO)Cn1nnc(-c2ccc(Oc3ncc(Cl)cc3F)cc2)n1` yielded an apparent permeability from apical to basolateral (Papp A→B) of 23 ×10⁻⁶ cm/s.

Take `N[C@H](CO)Cn1nnc(-c2ccc(Oc3ncc(Cl)cc3F)cc2)n1`: the Papp A→B in the data set “in vitro [1]” was determined as 28 ×10⁻⁶ cm/s. Moreover, the intrinsic clearance (microsomal CLint) in the data set “in vitro [2]”, in “in vitro [10]” and in the data set “in vitro [15]” was less than 25 µL/min/mg in each case. This molecule had a pH-dependent lipophilicity (logD) in “physchem [3]” of 2.3. The same molecule registered a clearance in the data set “in vivo [4]” of 9 mL/min/kg. In addition, the concentration at 24 h was determined as 134 nM in the data set “in vivo [17]” (blood) and 52 nM in “in vivo [6]”. For the same molecule, the values for the IC50 in [5], in data set [8] and in [19] were 30 µM, greater than 30 µM and 28 µM, respectively. For the same molecule, the MRT in “in vivo [7]” stood at 5.3 h. In the data set “in vivo [9]”, this molecule registered a Vd of 3 L/kg. In addition, the concentration at 2 h in “in vivo [18]” (blood) stood at 2980 nM. Further, the total exposure AUC(0-inf) in “in vivo [11]” is 14.7 µM·h. The molecule further had a bioavailability in “in vivo [12]” of 100%. The pKa in “physchem [13]” worked out at 7.1. For the same molecule, the solubility in “physchem [14]” was greater than 1000 µM. The peak concentration (Cmax) (commonly the maximum level reached in the sampled fluid or tissue) in “in vivo [16]” came out at 1300 nM.

In the case of `N[C@@H](CC(=O)O)Cn1nnc(-c2ccc(Oc3ncc(Cl)cc3F)cc2)n1`, in “in vitro [1]”, the Papp A→B amounted to 1.8 ×10⁻⁶ cm/s. Moreover, the intrinsic metabolic clearance (microsomal CLint) in “in vitro [2]”, in the data set “in vitro [10]” and in “in vitro [15]” was less than 25 µL/min/mg in each case. In the data set “physchem [3]”, this molecule returned a logD of 0.5. In the data set “in vivo [17]” (in vivo), this molecule gave a concentration at 24 h of 184 nM. This molecule also came in with a concentration at 2 h in “in vivo [18]” (in vivo) of 1290 nM. The molecule also registered a solubility in the data set “physchem [14]” of 620 µM (≈ 244 µg/mL). For the same molecule, the inhibition in vivo (commonly the percentage by which the read-out fell short of the control) at 10 mg/kg in data set [20] was 97%.

For `O=C(O)c1ccc(CN2C[C@@H]3C[C@H]2CN3Cc2ccc(Oc3ccc(-c4ncco4)cc3)cc2)cc1` [ACEBILUSTAT], the IC50 in [21] worked out at 0.135 µM; in [22], 0.003 µM.

Consider `CC(=O)N[C@H]1C[C@H]2CC[C@@H](C1)N2Cc1ccc(Oc2nc3ncccc3s2)cc1`, for which the results for the IC50 in data set [21] and in [22] were 0.042 µM and 0.003 µM, respectively.

These data come from ChEMBL document CHEMBL5375967 (J Med Chem, 2023).
